Reference: ChEMBL document CHEMBL5338756, “Dual-Acting Small Molecules: Subtype-Selective Cannabinoid Receptor 2 Agonist/Butyrylcholinesterase Inhibitor Hybrids Show Neuroprotection in an Alzheimer's Disease Mouse Model” (J Med Chem, 2023)
Where “and” joins values, the source holds several entries; their conditions need not be identical. Equal entries are not always repeated.

Experiments:
Cannabinoid receptor 2 [1] = target: T1, Cannabinoid receptor 2 (Homo sapiens, UniProt P34972); experiment: Displacement of [3H]CP55940 from human CB2 receptor expressed in HEK293 cell membrane at 10 uM incubated for 3 hrs by scintillation counter analysis relative to control; assay type: cell membranes
T1 sequence (P34972 whole entry): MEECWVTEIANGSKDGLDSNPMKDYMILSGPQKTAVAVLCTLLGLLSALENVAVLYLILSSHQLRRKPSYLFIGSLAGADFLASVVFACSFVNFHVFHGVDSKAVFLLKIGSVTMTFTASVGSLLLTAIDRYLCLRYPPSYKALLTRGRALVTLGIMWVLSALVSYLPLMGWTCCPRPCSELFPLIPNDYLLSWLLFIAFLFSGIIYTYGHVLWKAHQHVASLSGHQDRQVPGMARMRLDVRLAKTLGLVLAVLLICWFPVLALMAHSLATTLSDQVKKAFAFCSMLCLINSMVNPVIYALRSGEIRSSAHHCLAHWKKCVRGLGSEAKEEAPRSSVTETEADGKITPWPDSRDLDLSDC

[2] = target: Cannabinoid receptor 1 (Rattus norvegicus) (UniProt P20272); experiment: Displacement of [3H]CP55940 from rat brain membrane CB1 receptor at 10 uM incubated for 3 hrs by scintillation counter analysis relative to control; assay type: cell membranes
Sequence of Cannabinoid receptor 1 (Rattus norvegicus) (P20272 whole entry): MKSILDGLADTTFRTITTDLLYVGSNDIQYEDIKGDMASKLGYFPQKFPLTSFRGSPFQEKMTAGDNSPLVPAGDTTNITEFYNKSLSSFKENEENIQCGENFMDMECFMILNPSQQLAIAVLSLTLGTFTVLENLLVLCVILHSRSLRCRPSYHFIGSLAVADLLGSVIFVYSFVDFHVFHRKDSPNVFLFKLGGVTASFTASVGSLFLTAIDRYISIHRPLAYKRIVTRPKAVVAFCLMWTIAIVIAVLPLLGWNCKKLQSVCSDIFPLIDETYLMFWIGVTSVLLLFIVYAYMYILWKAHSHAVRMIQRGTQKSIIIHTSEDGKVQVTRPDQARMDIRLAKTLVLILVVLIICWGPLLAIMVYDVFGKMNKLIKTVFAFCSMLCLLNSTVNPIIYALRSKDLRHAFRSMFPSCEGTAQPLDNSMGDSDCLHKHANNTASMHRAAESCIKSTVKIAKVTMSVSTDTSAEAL

Cholinesterase [3] = target: T2, Cholinesterase (Homo sapiens, UniProt P06276)
T2 sequence (P06276 whole entry): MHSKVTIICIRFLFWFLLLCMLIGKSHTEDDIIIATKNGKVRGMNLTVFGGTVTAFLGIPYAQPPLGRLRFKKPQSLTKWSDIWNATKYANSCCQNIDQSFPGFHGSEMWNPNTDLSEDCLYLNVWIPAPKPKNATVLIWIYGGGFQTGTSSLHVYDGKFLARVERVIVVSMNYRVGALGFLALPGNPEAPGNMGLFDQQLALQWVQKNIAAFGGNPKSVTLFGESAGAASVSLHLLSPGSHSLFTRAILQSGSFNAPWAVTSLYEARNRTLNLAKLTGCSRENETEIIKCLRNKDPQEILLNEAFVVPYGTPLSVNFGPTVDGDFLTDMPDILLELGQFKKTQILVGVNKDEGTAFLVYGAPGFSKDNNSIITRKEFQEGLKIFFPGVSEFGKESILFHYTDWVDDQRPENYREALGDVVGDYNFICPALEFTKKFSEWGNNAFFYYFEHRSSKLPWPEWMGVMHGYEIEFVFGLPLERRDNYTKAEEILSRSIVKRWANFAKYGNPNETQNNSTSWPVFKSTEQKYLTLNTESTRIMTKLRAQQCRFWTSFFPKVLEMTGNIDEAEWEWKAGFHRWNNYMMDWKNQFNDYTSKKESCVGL

Acetylcholinesterase [4] = target: T3, Acetylcholinesterase (Homo sapiens, UniProt P22303)
T3 sequence (P22303 whole entry): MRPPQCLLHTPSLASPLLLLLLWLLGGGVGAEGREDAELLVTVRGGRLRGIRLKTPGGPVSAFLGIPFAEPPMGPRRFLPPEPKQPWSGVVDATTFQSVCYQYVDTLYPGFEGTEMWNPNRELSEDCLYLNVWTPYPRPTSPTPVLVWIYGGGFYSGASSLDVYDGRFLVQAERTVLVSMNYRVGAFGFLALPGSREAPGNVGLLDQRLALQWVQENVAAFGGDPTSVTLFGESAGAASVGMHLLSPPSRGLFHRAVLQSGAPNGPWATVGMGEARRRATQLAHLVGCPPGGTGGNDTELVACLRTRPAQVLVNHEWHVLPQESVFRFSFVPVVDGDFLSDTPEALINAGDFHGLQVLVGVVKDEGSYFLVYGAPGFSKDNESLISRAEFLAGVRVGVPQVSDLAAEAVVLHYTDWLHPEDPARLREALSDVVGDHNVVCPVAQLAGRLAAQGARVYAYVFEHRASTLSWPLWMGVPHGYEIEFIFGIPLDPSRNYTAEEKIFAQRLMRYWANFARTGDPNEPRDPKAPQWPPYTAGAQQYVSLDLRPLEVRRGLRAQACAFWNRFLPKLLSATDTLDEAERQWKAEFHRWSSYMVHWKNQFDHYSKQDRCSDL

Cannabinoid receptor 2 [5] = target: T1, Cannabinoid receptor 2
Description: Displacement of [3H]CP55940 from human CB2 receptor expressed in HEK293 cell membrane incubated for 3 hrs by scintillation counter analysis

Cholinesterase [6] = target: T2, Cholinesterase; remark: listed apart in the source
Cannabinoid receptor 2 [7] = target: T1, Cannabinoid receptor 2; experiment: biochemical
Description: Displacement of [3H]CP55940 from human CB2 receptor stably expressed in HEK293 cells by Cheng-Prusoff equation analysis

Acetylcholinesterase [8] = target: T3, Acetylcholinesterase; remark: listed apart in the source
Cannabinoid receptor 2 [9] = target: T1, Cannabinoid receptor 2; experiment: Agonist activity at human CB2 receptor stably expressed in CHO-K1 cells co-expressing Galphaq16 by Fluo-4AM dye based calcium mobilization assay relative to CP55940; assay type: functional, cell-based
Cannabinoid receptor 2 [10] = target: T1, Cannabinoid receptor 2; experiment: Agonist activity at human CB2 receptor stably expressed in HEK293 cells assessed as induction of beta-arrestin 2 recruitment at 10 uM incubated for 2 hrs by luminescence based assay relative to CP55940; assay type: functional, cell-based; details: filed as agonist
Cannabinoid receptor 2 [11] = target: T1, Cannabinoid receptor 2; remark: listed apart in the source
Cannabinoid receptor 2 [12] = target: T1, Cannabinoid receptor 2; remark: listed apart in the source
Description: Agonist activity at human CB2 receptor stably expressed in HEK293 cells assessed as induction of beta-arrestin 2 recruitment incubated for 2 hrs by luminescence based assay

Mus musculus [13] = experiment: (§1) Synergistic neuroprotective activity against amyloid beta (25 to 35) induced Alzheimer's disease Swiss mouse model assessed as combination index at 0.1 to 1 mg/kg, ip administered once daily for day 1 to day 7 […] and measured on day 9 and 10 in presence of 2-benzyl-N,N-diethyl-1-isopentyl-1H-benzo[d]imidazole-5-carboxamide by step-through passive avoidance test; assay type: functional; details: dose 0.1-1 mg/kg
Mus musculus [14] = experiment: as §1, with “0.1” for “0.1 to 1”, “8” for “9 and 10”, “spontaneous alternation performance” for “step-through passive avoidance”; assay type: functional

For `CCN(CC)C(=O)c1ccc2c(c1)nc(Cc1ccc(OC(=O)NC3CC3)cc1)n2CCC(C)C`, the Activity (Cannabinoid receptor 2 [1]; filed as agonist) was 50%, the Activity [2] was 32% and the IC50 (Cholinesterase [3]) was 70 nM and 79.4 nM. The IC50 (Acetylcholinesterase [4]) was > 25.1 µM.
With `CCOc1ccc(Cc2nc3cc(OC(=O)N(C)CC)ccc3n2CCC(C)C)cc1` the Activity ([2]; filed as agonist) was 80%, the IC50 (Cholinesterase [3]) was 2900 nM and the IC50 (Acetylcholinesterase [4]) was > 25.1 µM. It also gave an IC50 (Cannabinoid receptor 2 [5]) of 580 nM.
Compound `CC(C)(C)OC(=O)NCCOCCOc1ccc(-c2cc(=O)c3c(OCc4ccccc4)cccc3o2)cc1` has an IC50 (Cholinesterase [6]) of 1780 nM and a Ki (Cannabinoid receptor 2 [7]) of 2000 nM.
For `CCOc1ccc(Cc2nc3cc(O)ccc3n2CCC(C)C)cc1`, the Activity [2] was 19%, the IC50 (Acetylcholinesterase [4]) was > 25.1 µM and the IC50 (Cannabinoid receptor 2 [5]) was 5530 nM.
In the case of `Cc1c(C(=O)NN2CCCCC2)nn(-c2ccc(Cl)cc2Cl)c1-c1ccc(Cl)cc1`, the Activity (Cannabinoid receptor 2 [1]) is reported as < 10%.
In the case of `O=c1cc(-c2ccc(O)cc2)oc2ccccc12`, the IC50 (Cholinesterase [6]) is reported as 304 nM and the IC50 (Acetylcholinesterase [8]) is reported as 1500 nM.
With `CCN(CC)C(=O)Oc1ccc(Cc2nc3cc(C(=O)N(CC)CC)ccc3n2CCC(C)C)cc1` the Activity (Cannabinoid receptor 2 [1]) was < 10%, the Activity ([2]; filed as agonist) was 43% and the IC50 (Cholinesterase [3]) was 4220 nM. The IC50 (Acetylcholinesterase [4]) was > 25.1 µM.
`CCOc1ccc(Cc2nc3cc(OC(=O)N(C)C)ccc3n2CCC(C)C)cc1` was tested, and the Activity ([2]; filed as agonist) was 57%, the IC50 (Cholinesterase [3]) was > 25100 nM and the IC50 (Acetylcholinesterase [4]) was > 25.1 µM. It also gave an IC50 (Cannabinoid receptor 2 [5]) of 1190 nM.
Compound `CCNC(=O)Oc1ccc(Cc2nc3cc(C(=O)N(CC)CC)ccc3n2CCC(C)C)cc1` has an Activity (Cannabinoid receptor 2 [1]) of 19%, an Activity [2] of 37% and an IC50 (Cholinesterase [3]) of 810 nM. The IC50 (Acetylcholinesterase [4]) was > 25.1 µM.
`CCN(CC)C(=O)c1ccc2c(c1)nc(Cc1ccc(OC(=O)N(C)Cc3ccccc3)cc1)n2CCC(C)C` was tested, and the Activity ([2]; filed as agonist) was 51%, the IC50 (Cholinesterase [3]) was 390 nM and the IC50 (Acetylcholinesterase [4]) was 9.01 µM. The IC50 (Cannabinoid receptor 2 [5]) was 2600 nM.
For `CCCN(C)C(=O)Oc1ccc(Cc2nc3cc(C(=O)N(CC)CC)ccc3n2CCC(C)C)cc1`, the Activity ([2]; filed as agonist) was 46%, the IC50 (Cholinesterase [3]) was 1060 nM and the IC50 (Acetylcholinesterase [4]) was > 25.1 µM.
In the case of `CCN(CC)C(=O)c1ccc2c(c1)nc(Cc1ccc(OC(=O)N(C)C)cc1)n2CCC(C)C`, the Activity [2] is reported as < 10%, the Emax (Cannabinoid receptor 2 [9]; filed as agonist) is reported as 42% and the Emax (Cannabinoid receptor 2 [10]) is reported as 79%. It also gave an IC50 (Cholinesterase [3]) of 620 nM, an IC50 (Acetylcholinesterase [4]) of 8.66 µM and an IC50 (Cannabinoid receptor 2 [5]) of 780 nM. The EC50 (Cannabinoid receptor 2 [11]) was 244 nM and the EC50 (Cannabinoid receptor 2 [12]) was 82 nM.
`O=c1cc(-c2ccc(O)cc2)oc2cccc(OCc3ccccc3)c12` showed an IC50 (Cholinesterase [6]) of 6.9 nM and an IC50 (Acetylcholinesterase [8]) of 711 nM.
`CCN(CC)C(=O)c1ccc2c(c1)nc(Cc1ccccc1)n2CCC(C)C` was tested, and the IC50 (Cholinesterase [3]) was 50 nM, the IC50 (Acetylcholinesterase [4]) was > 25.1 µM and the IC50 (Cholinesterase [6]) was 6.4 nM. It also gave an IC50 (Acetylcholinesterase [8]) of 3800 nM.
For `CCN(CC)C(=O)c1ccc2c(c1)nc(Cc1ccc(OC(=O)NCc3ccccc3)cc1)n2CCC(C)C`, the Activity [2] was < 10%, the Emax (Cannabinoid receptor 2 [9]) was 22% and the IC50 (Cholinesterase [3]) was 190 nM. For the same compound, the IC50 (Acetylcholinesterase [4]) was 4.5 µM and 3.98 µM, the IC50 (Cannabinoid receptor 2 [5]) was 11000 nM and the EC50 (Cannabinoid receptor 2 [11]) was 7710 nM.
In the case of `CCN(CC)C(=O)c1ccc2c(c1)nc(Cc1ccc(OC(=O)NC)cc1)n2CCC(C)C`, the Activity (Cannabinoid receptor 2 [1]) is reported as 33%.
`CCN(CC)C(=O)c1ccc2c(c1)nc(Cc1ccc(O)cc1)n2CCC(C)C` was tested, and the Activity [2] was 10%, the IC50 (Cholinesterase [3]) was > 25100 nM and the IC50 (Cannabinoid receptor 2 [5]) was 2210 nM.
`CC(C)(C)OC(=O)NCCOCCOc1ccc(-c2cc(=O)c3ccccc3o2)cc1` was tested, and the IC50 (Cholinesterase [6]) was 2 nM and the Ki (Cannabinoid receptor 2 [7]) was 4500 nM.
`CCN(CC)C(=O)c1ccc2c(c1)nc(Cc1ccc(OC(=O)N(C)c3ccccc3)cc1)n2CCC(C)C` was tested, and the Activity [2] was 25%, the IC50 (Cholinesterase [3]) was 10100 nM and the IC50 (Acetylcholinesterase [4]) was 3.46 µM. For the same compound, the IC50 (Cannabinoid receptor 2 [5]) was 3850 nM.
`CCOc1ccc(Cc2nc3cc(OC(=O)NC4CC4)ccc3n2CCC(C)C)cc1` was tested, and the Activity [2] was 22%, the IC50 (Cholinesterase [3]) was 1350 nM and the IC50 (Acetylcholinesterase [4]) was > 25.1 µM. The IC50 (Cannabinoid receptor 2 [5]) was 1010 nM.
`CCOc1ccc(Cc2nc3cc(OC(=O)N4CCC4)ccc3n2CCC(C)C)cc1` showed an Activity ([2]; filed as agonist) of 41%, an Emax (Cannabinoid receptor 2 [9]; filed as agonist) of 68% and an IC50 (Cholinesterase [3]) of 150 nM. For the same compound, the IC50 (Acetylcholinesterase [4]) was > 25.1 µM, the IC50 (Cannabinoid receptor 2 [5]) was 1020 nM and the EC50 (Cannabinoid receptor 2 [11]) was 1300 nM. The EC50 (Cannabinoid receptor 2 [12]) was 42.6 nM.
Compound `NCCOCCOc1ccc(-c2cc(=O)c3ccccc3o2)cc1` has an IC50 (Cholinesterase [6]) of 13400 nM and a Ki (Cannabinoid receptor 2 [7]) of 20 nM.
In the case of `Cc1cc([N+](=O)[O-])c2oc(-c3ccc(OCCOCCNC(=O)OC(C)(C)C)cc3)cc(=O)c2c1`, the CI (Mus musculus [13]) is reported as 0.65, the CI (Mus musculus [14]) is reported as 0.49 and the IC50 (Cholinesterase [6]) is reported as 1600 nM. It also gave a Ki (Cannabinoid receptor 2 [7]) of 764 nM.
With `CCOc1ccc(Cc2nc3cc(OC(=O)N4CCCC4)ccc3n2CCC(C)C)cc1` the Activity ([2]; filed as agonist) was 49%, the IC50 (Cholinesterase [3]) was 3580 nM and 3160 nM and the IC50 (Acetylcholinesterase [4]) was > 25.1 µM. For the same compound, the IC50 (Cannabinoid receptor 2 [5]) was 1520 nM.
`CCN(C)C(=O)Oc1ccc(Cc2nc3cc(C(=O)N(CC)CC)ccc3n2CCC(C)C)cc1` was tested, and the Activity ([2]; filed as agonist) was 40%, the IC50 (Cholinesterase [3]) was 330 nM and the IC50 (Acetylcholinesterase [4]) was > 25.1 µM. For the same compound, the IC50 (Cannabinoid receptor 2 [5]) was 11000 nM.
